Test results from ChEMBL document CHEMBL5528029, “Design, synthesis, and biological evaluation of novel discoidin domain receptor inhibitors for the treatment of lung adenocarcinoma and pulmonary fibrosis” (Eur J Med Chem, 2024).

Tests used:
[1] = molecular target: T1, Discoidin domain-containing receptor 2 (Homo sapiens) (UniProt Q16832); assay: Inhibition of DDR2 (unknown origin) assessed as remaining activity at 1 uM using fluorescein-poly GAT as substrate in presence of ATP by TR-FRET assay relative to control
T1 sequence (whole entry): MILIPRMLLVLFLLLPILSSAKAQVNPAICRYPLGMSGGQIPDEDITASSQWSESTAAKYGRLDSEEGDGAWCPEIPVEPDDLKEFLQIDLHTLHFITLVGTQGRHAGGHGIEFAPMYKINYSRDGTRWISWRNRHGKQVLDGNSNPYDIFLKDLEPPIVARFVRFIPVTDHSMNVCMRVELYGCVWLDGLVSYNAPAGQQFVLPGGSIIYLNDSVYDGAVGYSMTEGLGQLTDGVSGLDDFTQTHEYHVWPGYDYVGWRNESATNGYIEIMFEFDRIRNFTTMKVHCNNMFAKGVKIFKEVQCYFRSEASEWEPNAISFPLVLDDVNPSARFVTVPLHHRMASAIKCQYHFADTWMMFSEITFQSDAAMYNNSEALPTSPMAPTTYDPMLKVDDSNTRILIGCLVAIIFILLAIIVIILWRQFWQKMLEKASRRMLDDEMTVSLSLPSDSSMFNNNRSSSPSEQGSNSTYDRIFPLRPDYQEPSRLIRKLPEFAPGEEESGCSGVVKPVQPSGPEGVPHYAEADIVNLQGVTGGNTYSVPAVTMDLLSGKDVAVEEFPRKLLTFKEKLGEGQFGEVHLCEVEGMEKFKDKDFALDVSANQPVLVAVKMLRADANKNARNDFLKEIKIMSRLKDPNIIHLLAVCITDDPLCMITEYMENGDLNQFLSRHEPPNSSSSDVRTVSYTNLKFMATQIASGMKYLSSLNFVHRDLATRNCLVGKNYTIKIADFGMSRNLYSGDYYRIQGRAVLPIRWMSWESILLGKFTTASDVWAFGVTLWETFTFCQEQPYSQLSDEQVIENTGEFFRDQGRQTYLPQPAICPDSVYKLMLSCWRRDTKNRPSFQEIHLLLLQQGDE

[2] = molecular target: High affinity nerve growth factor receptor (Homo sapiens) (UniProt P04629); assay: Inhibition of TRK-A (unknown origin) assessed as remaining activity at 1 uM using fluorescein-poly GAT as substrate in presence of ATP by TR-FRET assay relative to control
Sequence of High affinity nerve growth factor receptor (Homo sapiens) (P04629 33-796 limits assumed): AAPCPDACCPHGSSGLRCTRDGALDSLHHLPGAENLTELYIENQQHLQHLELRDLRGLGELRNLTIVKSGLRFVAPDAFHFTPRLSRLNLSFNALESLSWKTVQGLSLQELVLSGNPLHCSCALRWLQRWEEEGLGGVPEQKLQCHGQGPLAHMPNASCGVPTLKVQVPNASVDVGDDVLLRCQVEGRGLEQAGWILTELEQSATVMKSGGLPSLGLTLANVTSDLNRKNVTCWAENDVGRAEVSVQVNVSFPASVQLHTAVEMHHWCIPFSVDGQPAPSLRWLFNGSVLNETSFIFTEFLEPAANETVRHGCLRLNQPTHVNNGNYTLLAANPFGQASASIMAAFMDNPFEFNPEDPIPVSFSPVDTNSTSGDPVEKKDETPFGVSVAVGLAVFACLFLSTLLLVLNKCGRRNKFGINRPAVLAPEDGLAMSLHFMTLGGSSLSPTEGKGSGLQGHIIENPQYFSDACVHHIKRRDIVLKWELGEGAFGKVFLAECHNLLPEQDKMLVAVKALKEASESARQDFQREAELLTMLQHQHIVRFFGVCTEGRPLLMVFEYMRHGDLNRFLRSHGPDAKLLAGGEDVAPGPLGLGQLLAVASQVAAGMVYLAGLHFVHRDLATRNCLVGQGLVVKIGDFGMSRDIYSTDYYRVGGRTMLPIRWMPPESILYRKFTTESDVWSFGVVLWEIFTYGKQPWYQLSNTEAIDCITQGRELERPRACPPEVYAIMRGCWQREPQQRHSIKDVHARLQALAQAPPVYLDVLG

[3] = molecular target: BDNF/NT-3 growth factors receptor (Homo sapiens) (UniProt Q16620); assay: Inhibition of TRK-B (unknown origin) assessed as remaining activity at 1 uM using fluorescein-poly GAT as substrate in presence of ATP by TR-FRET assay relative to control
Sequence of BDNF/NT-3 growth factors receptor (Homo sapiens) (Q16620 32-822 limits assumed): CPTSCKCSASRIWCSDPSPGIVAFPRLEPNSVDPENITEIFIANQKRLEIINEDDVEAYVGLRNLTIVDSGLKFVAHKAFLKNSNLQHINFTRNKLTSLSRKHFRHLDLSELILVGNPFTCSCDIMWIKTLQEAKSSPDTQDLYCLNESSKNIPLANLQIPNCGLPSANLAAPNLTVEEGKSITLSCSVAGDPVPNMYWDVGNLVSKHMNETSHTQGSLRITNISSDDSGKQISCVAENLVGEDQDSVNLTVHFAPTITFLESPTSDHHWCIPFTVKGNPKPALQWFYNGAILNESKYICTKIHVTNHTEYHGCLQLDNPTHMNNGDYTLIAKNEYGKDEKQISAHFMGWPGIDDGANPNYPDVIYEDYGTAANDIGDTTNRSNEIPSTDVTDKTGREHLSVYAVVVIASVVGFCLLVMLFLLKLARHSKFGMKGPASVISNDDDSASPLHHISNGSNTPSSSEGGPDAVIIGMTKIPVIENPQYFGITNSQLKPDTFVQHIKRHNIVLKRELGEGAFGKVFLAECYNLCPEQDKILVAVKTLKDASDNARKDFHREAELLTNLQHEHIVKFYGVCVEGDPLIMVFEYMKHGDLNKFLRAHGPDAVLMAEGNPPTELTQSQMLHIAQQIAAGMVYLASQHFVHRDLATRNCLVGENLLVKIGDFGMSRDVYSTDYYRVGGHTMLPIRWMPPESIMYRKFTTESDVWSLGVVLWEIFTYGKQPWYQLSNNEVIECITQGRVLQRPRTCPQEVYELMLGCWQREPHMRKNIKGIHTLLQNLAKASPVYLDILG

[4] = molecular target: NT-3 growth factor receptor (Homo sapiens) (UniProt Q16288); assay: Inhibition of TRK-C (unknown origin) assessed as remaining activity at 1 uM using fluorescein-poly GAT as substrate in presence of ATP by TR-FRET assay relative to control
Sequence of NT-3 growth factor receptor (Homo sapiens) (Q16288 32-839 limits assumed): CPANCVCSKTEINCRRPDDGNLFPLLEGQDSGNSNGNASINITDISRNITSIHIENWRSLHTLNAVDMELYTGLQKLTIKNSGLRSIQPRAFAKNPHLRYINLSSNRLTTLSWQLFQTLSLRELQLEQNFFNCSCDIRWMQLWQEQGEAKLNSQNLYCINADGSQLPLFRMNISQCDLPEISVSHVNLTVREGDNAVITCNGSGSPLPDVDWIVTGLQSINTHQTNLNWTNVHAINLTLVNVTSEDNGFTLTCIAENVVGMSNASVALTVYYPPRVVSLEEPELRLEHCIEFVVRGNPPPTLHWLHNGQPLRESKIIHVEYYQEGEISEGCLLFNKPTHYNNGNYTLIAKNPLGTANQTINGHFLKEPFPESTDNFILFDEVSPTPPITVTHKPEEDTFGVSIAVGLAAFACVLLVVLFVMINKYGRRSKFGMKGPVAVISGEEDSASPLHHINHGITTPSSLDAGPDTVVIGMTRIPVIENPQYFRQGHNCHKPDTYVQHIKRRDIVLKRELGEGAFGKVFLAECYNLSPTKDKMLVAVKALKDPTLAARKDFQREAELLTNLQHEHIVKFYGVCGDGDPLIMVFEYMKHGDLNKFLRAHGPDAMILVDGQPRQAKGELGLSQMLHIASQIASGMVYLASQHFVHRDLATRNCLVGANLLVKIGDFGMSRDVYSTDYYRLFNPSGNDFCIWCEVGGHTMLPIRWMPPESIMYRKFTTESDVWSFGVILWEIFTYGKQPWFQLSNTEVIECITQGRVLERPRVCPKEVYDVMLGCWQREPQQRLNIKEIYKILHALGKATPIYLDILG

[5] = molecular target: T2, Discoidin domain-containing receptor 2 (Homo sapiens, UniProt Q16832); assay: Inhibition of DDR2 (unknown origin)
T2 sequence (Q16832 whole entry): T1 sequence (whole entry)

[6] = tested on: A549; assay: Antiproliferative activity against human A549 cells incubated for 72 hrs by MTT assay; conditions: A549, 72 h
[7] = Antiproliferative activity against human SPCA1 cells incubated for 72 hrs by MTT assay; conditions: SPCA1, 72 h
[8] = tested on: NCI-H1975; assay: Antiproliferative activity against human NCI-H1975 cells incubated for 72 hrs by MTT assay; conditions: NCI-H1975, 72 h

Activity [1] | Activity [2] | Activity [3] | Activity [4] | IC50 [5] | IC50 [6] | IC50 [8] | SMILES | IC50 [7]
102% | 96% | 104% | 106% | – | – | – | COc1ccc2c(c1)c(CNC(=O)Nc1ccc(C(F)(F)F)cc1)cn2CC(=O)N1CCN(C)CC1 | –
74.7% | 77.8% | 73.1% | 60.5% | – | – | – | COc1ccc2c(c1)c(CNC(=O)Nc1ccc(F)cc1F)cn2CC(=O)N1CCOCC1 | –
66.5% | 93.1% | 88.9% | 68.8% | – | – | – | COc1ccc2c(c1)c(CNC(=O)Nc1ccc(F)cc1F)cn2CC(=O)N1CCN(C)CC1 | –
32.5% | 95.7% | 69.5% | 75.2% | 1.67 µM | 11.2 µM | 5.34 µM | O=C(NCc1cn(CC(=O)N2CCCC2)c2ccc(F)cc12)Nc1ccc(F)cc1F | 10.5 µM
55.9% | 94% | 93.4% | 82.9% | – | – | – | COc1ccc2c(c1)c(CNC(=O)Nc1ccccc1Cl)cn2CC(=O)N1CCN(C)CC1 | –
41.3% | 88.2% | 106% | 83.5% | 1.19 µM | 1.67 µM | 3.86 µM | O=C(NCc1cn(CC(=O)N2CCCCC2)c2ccc(F)cc12)Nc1ccc(F)cc1F | 1.73 µM
93.4% | 108% | 108% | 94.5% | – | – | – | COc1ccc(NC(=O)NCc2cn(CC(=O)N3CCN(C)CC3)c3ccc(OC)cc23)cc1 | –
73.5% | 80% | 104% | 106% | – | – | – | COc1ccc(NC(=O)NCc2cn(CC(=O)N3CCN(C)CC3)c3ccc(F)cc23)cc1 | –
50.8% | 74% | 104% | 76.2% | 1.33 µM | 6.96 µM | 3.72 µM | COc1ccc2c(c1)c(CNC(=O)Nc1ccc(F)cc1F)cn2CC(=O)N1CCCC1 | 7.35 µM
78.2% | 91.7% | 90.4% | 104% | – | – | – | Cc1ccc(NC(=O)NCc2cn(CC(=O)N3CCN(C)CC3)c3ccc(F)cc23)cc1 | –
74.2% | 81.5% | 105% | 93.7% | – | – | – | CN1CCN(C(=O)Cn2cc(CNC(=O)Nc3ccc(C(F)(F)F)cc3)c3cc(F)ccc32)CC1 | –
73.5% | 81.8% | 89.6% | 90.2% | – | – | – | CN1CCN(C(=O)Cn2cc(CNC(=O)Nc3ccccc3Cl)c3cc(F)ccc32)CC1 | –
74.8% | 84.7% | 70.8% | 68.6% | – | – | – | COc1ccc2c(c1)c(CNC(=O)Nc1ccc(F)cc1F)cn2CC(=O)N1CCCCC1 | –
96.2% | 98.7% | 108% | 90.9% | – | – | – | COc1ccc2c(c1)c(CNC(=O)Nc1ccc(C)cc1)cn2CC(=O)N1CCN(C)CC1 | –
53.5% | 93.8% | 72.8% | 82.7% | 0.45 µM | 3.72 µM | 1.98 µM | O=C(NCc1cn(CC(=O)N2CCOCC2)c2ccc(F)cc12)Nc1ccc(F)cc1F | 2.82 µM

Continued, compound first:

SMILES | Activity [1] | Activity [2] | Activity [3] | Activity [4] | IC50 [5] | IC50 [6] | IC50 [8] | IC50 [7]
COc1ccc(NC(=O)NCc2cn(CC(=O)N3CCCCC3)c3ccc(OC)cc23)cc1 | 72.4% | 92.1% | 87.4% | 92.7% | – | – | – | –
COc1ccc2c(c1)c(CNC(=O)Nc1ccc(C)cc1)cn2CC(=O)N1CCCCC1 | 83.2% | 82.3% | 85.7% | 92.5% | – | – | – | –
Cc1ccc(NC(=O)NCc2cn(CC(=O)N3CCCCC3)c3ccc(F)cc23)cc1 | 92.5% | 99.7% | 97% | 99.7% | – | – | – | –
O=C(NCc1cn(CC(=O)N2CCCC2)c2ccc(F)cc12)Nc1ccccc1Cl | 73.8% | 78% | 81.5% | 68.6% | – | – | – | –
COc1ccc2c(c1)c(CNC(=O)Nc1ccc(C(F)(F)F)cc1)cn2CC(=O)N1CCCC1 | 99.5% | 90.4% | 72.2% | 89.7% | – | – | – | –
COc1ccc(NC(=O)NCc2cn(CC(=O)N3CCCCC3)c3ccc(F)cc23)cc1 | 80.6% | 92.7% | 80.1% | 101% | – | – | – | –
COc1ccc2c(c1)c(CNC(=O)Nc1ccc(C(F)(F)F)cc1)cn2CC(=O)N1CCOCC1 | 82.2% | 71.8% | 79% | 103% | – | – | – | –
O=C(NCc1cn(CC(=O)N2CCOCC2)c2ccc(F)cc12)Nc1ccc(C(F)(F)F)cc1 | 90.2% | 77.5% | 72.2% | 98.3% | – | – | – | –
O=C(NCc1cn(CC(=O)N2CCOCC2)c2ccc(F)cc12)Nc1ccccc1Cl | 54.5% | 78% | 83.8% | 87.4% | – | – | – | –
COc1ccc2c(c1)c(CNC(=O)Nc1ccc(C)cc1)cn2CC(=O)N1CCOCC1 | 89.6% | 81.3% | 84% | 87.5% | – | – | – | –
COc1ccc2c(c1)c(CNC(=O)Nc1ccc(C)cc1)cn2CC(=O)N1CCCC1 | 84.8% | 75.2% | 87.9% | 77.5% | – | – | – | –
COc1ccc(NC(=O)NCc2cn(CC(=O)N3CCCC3)c3ccc(F)cc23)cc1 | 86.3% | 71.6% | 83.8% | 110% | – | – | – | –
Cc1ccc(NC(=O)NCc2cn(CC(=O)N3CCCC3)c3ccc(F)cc23)cc1 | 95.4% | 101% | 99.5% | 91.2% | – | – | – | –
COc1ccc2c(c1)c(CNC(=O)Nc1ccccc1Cl)cn2CC(=O)N1CCOCC1 | 54.7% | 91.7% | 97.2% | 86% | – | – | – | –
COc1ccc2c(c1)c(CNC(=O)Nc1ccccc1Cl)cn2CC(=O)N1CCCC1 | 67.8% | 95.7% | 99.3% | 69.6% | – | – | – | –
O=C(NCc1cn(CC(=O)N2CCCCC2)c2ccc(F)cc12)Nc1ccc(C(F)(F)F)cc1 | 70.1% | 87% | 108% | 105% | – | – | – | –
COc1ccc2c(c1)c(CNC(=O)Nc1ccc(C(F)(F)F)cc1)cn2CC(=O)N1CCCCC1 | 73.8% | 91.6% | 74.9% | 105% | – | – | – | –
Cc1ccc(NC(=O)NCc2cn(CC(=O)N3CCOCC3)c3ccc(F)cc23)cc1 | 72.4% | 114% | 83.8% | 111% | – | – | – | –
COc1ccc(NC(=O)NCc2cn(CC(=O)N3CCCC3)c3ccc(OC)cc23)cc1 | 91.5% | 113% | 102% | 88.1% | – | – | – | –
COc1ccc(NC(=O)NCc2cn(CC(=O)N3CCOCC3)c3ccc(F)cc23)cc1 | 79.4% | 90.8% | 107% | 82.7% | – | – | – | –
O=C(NCc1cn(CC(=O)N2CCCCC2)c2ccc(F)cc12)Nc1ccccc1Cl | 48% | 90.3% | 75.7% | 84.2% | – | – | – | –
COc1ccc2c(c1)c(CNC(=O)Nc1ccccc1Cl)cn2CC(=O)N1CCCCC1 | 64.3% | 74.8% | 87.4% | 68.9% | – | – | – | –
COc1ccc(NC(=O)NCc2cn(CC(=O)N3CCOCC3)c3ccc(OC)cc23)cc1 | 95.3% | 98.9% | 92.5% | 89% | – | – | – | –
O=C(NCc1cn(CC(=O)N2CCCC2)c2ccc(F)cc12)Nc1ccc(C(F)(F)F)cc1 | 81.1% | 101% | 101% | 94.3% | – | – | – | –
